Where two headings read alike, the source gives them in different places.
Experiments:
[1] = test system: Amaranthus rudis (AMATA), tall water hemp; assay: Postemergence herbicide evaluation, growth of Amaranthus rudis (AMATA); type: in vivo; settings: for pest or weed control at 280 g/ha / pest or weed control at 560 g/ha: Amaranthus tuberculatus, post-emergence, read-out: Ave. AMATA, percent reduction in plant size relative to the untreated control; for Ave. AMATA: percent reduction in plant size vs untreated control
[2] = test system: Ambrosia artemisiifolia (AMBEL), common ragweed; assay: Postemergence herbicide evaluation, growth of Ambrosia artemisiifolia (AMBEL); type: in vivo; settings: for pest or weed control at 280 g/ha / pest or weed control at 560 g/ha: Ambrosia artemisiifolia, post-emergence, read-out: AVE. AMBEL, percent reduction in plant size relative to the untreated control; for AVE. AMBEL: percent reduction in plant size vs untreated control
[3] = test system: Abutilon theophrasti (ABUTH), velvetleaf; assay: Postemergence herbicide evaluation, growth of Abutilon theophrasti (ABUTH); type: in vivo; settings: for pest or weed control at 280 g/ha / pest or weed control at 560 g/ha: Abutilon theophrasti, post-emergence, read-out: AVE. ABUTH, percent reduction in plant size relative to the untreated control; for AVE. ABUTH: percent reduction in plant size vs untreated control
[4] = test system: Chenopodium album (CHEAL), common lambsquarters; assay: Postemergence herbicide evaluation, growth of Chenopodium album (CHEAL); type: in vivo; settings: for pest or weed control at 280 g/ha / pest or weed control at 560 g/ha: Chenopodium album, post-emergence, read-out: Ave. CHEAL, percent reduction in plant size relative to the untreated control; for Ave. CHEAL: percent reduction in plant size vs untreated control
[5] = test system: glyphosate resistant Conyza canadensis (L.) (ERICA), horseweed; assay: Postemergence herbicide evaluation, growth of Conyza canadensis (ERICA); type: in vivo; settings: for pest or weed control at 280 g/ha / pest or weed control at 560 g/ha: Erigeron canadensis, post-emergence, read-out: Ave. ERICA, percent reduction in plant size relative to the untreated control; for Ave. ERICA: percent reduction in plant size vs untreated control
[6] = Volatility of compounds measured by thermogravimetric analysis (TGA); type: physicochemical
Corn (ZEAMX) = assay: Greenhouse post-emergence mixture trials, percent visual control; type: in vivo; settings: ZEAMX, 21 DAA
[7] = test system: Common Lambsquarters (CHEAL); assay: as above; type: in vivo; settings: CHEAL, 21 DAA, Trial Bridge 2, compound 560 g ae/ha + Saflufenacil 75 g ai or ae/ha
[8] = test system: weeds ABUTH, AMATA, AMBEL, CHEAL, ERICA; assay: Postemergence herbicide evaluation, overall average % weed control (ABUTH, AMATA, AMBEL, CHEAL, ERICA); type: in vivo; settings: post-emergence, read-out: Overall Ave % Weed Control; for pest or weed control at 280 g/ha: 280 g ae/ha; for pest or weed control at 560 g/ha: 560 g ae/ha
[9] = test system: weeds ABUTH, AMATA, AMBEL, CHEAL, ERICA; assay: Postemergence herbicide evaluation, overall average % weed control across ABUTH, AMATA, AMBEL, CHEAL and ERICA; type: in vivo; settings: average over five weeds
[10] = test system: Glycine max (Enlist E3 traited soybeans, GLXMA); settings: Enlist E3 soybean, percent reduction in plant size vs untreated control

O=C(COc1ccc(Cl)cc1Cl)Nc1ccon1 [Compound D2, 2-(2,4-Dichlorophenoxy)-N-(isoxazol-3-yl)acetamide]
pest or weed control at 280 g/ha ([1]; 168 h, 280 g ae/ha, 7 DAA): 70% | pest or weed control at 560 g/ha ([1]; 168 h, 560 g ae/ha, 7 DAA): 78% | pest or weed control at 280 g/ha ([1]; 336 h, 280 g ae/ha, 14 DAA): 85% | pest or weed control at 560 g/ha ([1]; 336 h, 560 g ae/ha, 14 DAA): 92% | pest or weed control at 280 g/ha ([1]; 504 h, 280 g ae/ha, 21 DAA): 94% | pest or weed control at 560 g/ha ([1]; 504 h, 560 g ae/ha, 21 DAA): 97% | pest or weed control at 280 g/ha ([2]; 168 h, 280 g ae/ha, 7 DAA): 68% | pest or weed control at 560 g/ha ([2]; 168 h, 560 g ae/ha, 7 DAA): 73% | pest or weed control at 280 g/ha ([2]; 336 h, 280 g ae/ha, 14 DAA): 89% | pest or weed control at 560 g/ha ([2]; 336 h, 560 g ae/ha, 14 DAA): 97% | pest or weed control at 280 g/ha ([2]; 504 h, 280 g ae/ha, 21 DAA): 100% | pest or weed control at 560 g/ha ([2]; 504 h, 560 g ae/ha, 21 DAA): 97% | pest or weed control at 280 g/ha ([3]; 168 h, 280 g ae/ha, 7 DAA): 78% | pest or weed control at 560 g/ha ([3]; 168 h, 560 g ae/ha, 7 DAA): 88% | pest or weed control at 280 g/ha ([3]; 336 h, 280 g ae/ha, 14 DAA): 83% | pest or weed control at 560 g/ha ([3]; 336 h, 560 g ae/ha, 14 DAA): 93% | pest or weed control at 280 g/ha ([3]; 504 h, 280 g ae/ha, 21 DAA): 80% | pest or weed control at 560 g/ha ([3]; 504 h, 560 g ae/ha, 21 DAA): 99% | pest or weed control at 280 g/ha ([4]; 168 h, 280 g ae/ha, 7 DAA): 70% | pest or weed control at 560 g/ha ([4]; 168 h, 560 g ae/ha, 7 DAA): 73% | pest or weed control at 280 g/ha ([4]; 336 h, 280 g ae/ha, 14 DAA): 73% | pest or weed control at 560 g/ha ([4]; 336 h, 560 g ae/ha, 14 DAA): 88% | pest or weed control at 280 g/ha ([4]; 504 h, 280 g ae/ha, 21 DAA): 78% | pest or weed control at 560 g/ha ([4]; 504 h, 560 g ae/ha, 21 DAA): 97% | pest or weed control at 280 g/ha ([5]; 168 h, 280 g ae/ha, 7 DAA): 68% | pest or weed control at 560 g/ha ([5]; 168 h, 560 g ae/ha, 7 DAA): 73% | pest or weed control at 280 g/ha ([5]; 336 h, 280 g ae/ha, 14 DAA): 88% | pest or weed control at 560 g/ha ([5]; 336 h, 560 g ae/ha, 14 DAA): 94% | pest or weed control at 280 g/ha ([5]; 504 h, 280 g ae/ha, 21 DAA): 91% | pest or weed control at 560 g/ha ([5]; 504 h, 560 g ae/ha, 21 DAA): 99% | TGA Data (rate of weight loss, volatility) [6]: 0.2 µg/min | % Control (Corn (ZEAMX); Trial Bridge 1, compound 1120 g ae/ha + Glufosinate 600 g ai or ae/ha): 5% | plant injury at 560 g/ha (Corn (ZEAMX); Zea mays, post-emergence, 504 h, compound 560 g ae/ha, no mixing partner, Trial Bridge 3): 5% | % Control [7]: 100% | pest or weed control at 280 g/ha ([8]; 168 h, 7 DAA): 71% | pest or weed control at 560 g/ha ([8]; 168 h, 7 DAA): 77% | pest or weed control at 280 g/ha ([8]; 336 h, 14 DAA): 83% | pest or weed control at 560 g/ha ([8]; 336 h, 14 DAA): 92% | pest or weed control at 280 g/ha ([8]; 504 h, 21 DAA): 88% | pest or weed control at 560 g/ha ([8]; 504 h, 21 DAA): 98%

CC(C)CCCCCOC(=O)COc1ccc(Cl)cc1Cl [Isooctyl Ester, 2,4-D-isoctyl, reference compound]
Ave. AMATA ([1]; 280 g ae/ha, 7 DAA): 80% | Ave. AMATA ([1]; 280 g ae/ha, 14 DAA): 92.5% | Ave. AMATA ([1]; 280 g ae/ha, 21 DAA): 65% | Ave. AMATA ([1]; 560 g ae/ha, 7 DAA): 85% | Ave. AMATA ([1]; 560 g ae/ha, 14 DAA): 87.5% | Ave. AMATA ([1]; 560 g ae/ha, 21 DAA): 85% | AVE. AMBEL ([2]; 280 g ae/ha, 7 DAA): 82.5% | AVE. AMBEL ([2]; 280 g ae/ha, 14 DAA): 77.5% | AVE. AMBEL ([2]; 280 g ae/ha, 21 DAA): 100% | AVE. AMBEL ([2]; 560 g ae/ha, 7 DAA): 65% | AVE. AMBEL ([2]; 560 g ae/ha, 14 DAA): 90% | AVE. AMBEL ([2]; 560 g ae/ha, 21 DAA): 100% | AVE. ABUTH ([3]; 280 g ae/ha, 7 DAA): 72.5% | AVE. ABUTH ([3]; 280 g ae/ha, 14 DAA): 80% | AVE. ABUTH ([3]; 280 g ae/ha, 21 DAA): 97.5% | AVE. ABUTH ([3]; 560 g ae/ha, 7 DAA): 77.5% | AVE. ABUTH ([3]; 560 g ae/ha, 14 DAA): 98.5% | AVE. ABUTH ([3]; 560 g ae/ha, 21 DAA): 100% | Ave. CHEAL ([4]; 280 g ae/ha, 7 DAA): 82.5% | Ave. CHEAL ([4]; 280 g ae/ha, 14 DAA): 95% | Ave. CHEAL ([4]; 280 g ae/ha, 21 DAA): 96% | Ave. CHEAL ([4]; 560 g ae/ha, 7 DAA): 77.5% | Ave. CHEAL ([4]; 560 g ae/ha, 14 DAA): 96.5% | Ave. CHEAL ([4]; 560 g ae/ha, 21 DAA): 93.5% | Ave. ERICA ([5]; 280 g ae/ha, 7 DAA): 85% | Ave. ERICA ([5]; 280 g ae/ha, 14 DAA): 100% | Ave. ERICA ([5]; 280 g ae/ha, 21 DAA): 98% | Ave. ERICA ([5]; 560 g ae/ha, 7 DAA): 85% | Ave. ERICA ([5]; 560 g ae/ha, 14 DAA): 98.5% | Ave. ERICA ([5]; 560 g ae/ha, 21 DAA): 99.5% | Overall Ave % Weed Control ([9]; 280 g ae/ha, 7 DAA): 80.5% | Overall Ave % Weed Control ([9]; 280 g ae/ha, 14 DAA): 89% | Overall Ave % Weed Control ([9]; 280 g ae/ha, 21 DAA): 91.3% | Overall Ave % Weed Control ([9]; 560 g ae/ha, 7 DAA): 78% | Overall Ave % Weed Control ([9]; 560 g ae/ha, 14 DAA): 94.2% | Overall Ave % Weed Control ([9]; 560 g ae/ha, 21 DAA): 95.6% | AVE. GLXMA ([10]; 280 g ae/ha, 7 DAA): 0% | AVE. GLXMA ([10]; 280 g ae/ha, 14 DAA): 0% | AVE. GLXMA ([10]; 280 g ae/ha, 21 DAA): 0% | AVE. GLXMA ([10]; 560 g ae/ha, 7 DAA): 0% | AVE. GLXMA ([10]; 560 g ae/ha, 14 DAA): 0% | AVE. GLXMA ([10]; 560 g ae/ha, 21 DAA): 0%
